In publication PMC12470768, “Mentha rotundifolia, a Source of Amoebicidal Agents Against Naegleria fowleri” (International Journal of Molecular Sciences, 2025):

Experiments:
N. fowleri trophozoites [1] = assay: Chromatin condensation (Hoechst 33342 / propidium iodide staining); format: cell-based, Naegleria fowleri; conditions: IC90, 24 h; compound 7 on ATCC 30808, compound 10 on ATCC 30215, amphotericin B on both
Description: (§1) To evaluate the induction of PCD, N. fowleri strains ATCC® 30808™ and ATCC® 30215™ were treated with the IC90 concentration of the compounds 7 and 10 for 24 h at 37 °C. After incubation, specific fluorescent markers were used to assess various detectable metabolic events, following the manufacturers’ instructions for each assay. Amphotericin B was used as a positive control, and untreated amoebae served as a negative control. Fluorescence imaging was performed using EVOS M5000 Cell Imaging System (Life Technologies, Madrid, Spain) and confocal microscope Leica DMI 4000 B equipped with Leica Application Suite X software version 3.5.5.19976 and Leica HC PL APO 63x/1.40 OIL CS2 objective (Leica Microsystems, Wetzlar, Germany). The fluorescence obtained was expressed as mean ± standard deviation from at least three independent experiments.
To evaluate the chromatin condensation, cells were stained with Hoechst 33,342 (1 µM) and propidium iodide (PI) (1 µM) for 20 min in the dark. Hoechst 33,342 binds to condensed chromatin in apoptotic cells and emits blue fluorescence, while PI enters cells with compromised membranes, indicative of late apoptosis or necrosis, and binds to DNA, emitting red fluorescence. […] Untreated cells were included as negative controls to establish baseline fluorescence levels.

N. fowleri trophozoites [2] = assay: Plasma membrane permeability (SYTOX Green); format: cell-based, Naegleria fowleri; conditions: IC90, 24 h; compound 7 on ATCC 30808, compound 10 on ATCC 30215, amphotericin B on both
Description: as §1
After treatment, SYTOX™ Green nucleic acid stain (Life Technologies, Madrid, Spain) was added to each well at a final concentration of 1 μg/mL and incubated for 15 min in the dark. […] In contrast, viable cells with intact membranes exclude the dye and remain non-fluorescent. Untreated trophozoites were used as negative controls.

[3] = system: N. fowleri ATCC® 30215™ trophozoites; assay: In vitro amoebicidal activity against N. fowleri trophozoites (alamarBlue), strain ATCC 30215; format: cell-based, Naegleria fowleri; conditions: trophozoite stage; for IC50: Naegleria fowleri, ATCC30215, 48 h, mean ± SD; for N. fowleri ATCC 30215 SI (CC50/IC50): selectivity index vs murine macrophages J774
Description: (§2) The in vitro activity of the tested compounds against Naegleria fowleri trophozoites was evaluated using two clinical strains obtained from the American Type Culture Collection (ATCC® 30808™ and ATCC® 30215™). Trophozoites were cultured axenically at 37 °C in 2% (w/v) Bactocasitone medium (Thermo Fisher Scientific, Madrid, Spain), supplemented with 10% (v/v) fetal bovine serum (FBS), […] penicillin G sodium salt, and 0.5 mg/mL streptomycin sulfate (Sigma-Aldrich, Madrid, Spain). For cytotoxicity assessment, murine macrophages from the J774A.1 cell line (ATCC® TIB-67) were cultured in Dulbecco’s Modified Eagle’s Medium (DMEM) supplemented with 10% (v/v) FBS and 10 μg/mL gentamicin sulfate (Sigma-Aldrich, Madrid, Spain). The macrophages were maintained at 37 °C in a 5% CO2 atmosphere.
(§3) The trophocidal activity of the compounds was evaluated using the alamarBlue® colorimetric assay. N. fowleri trophozoites were seeded in duplicate in a 96-well microtiter plate at a concentration of 2 × 10^5 cells/mL and incubated for adhesion in Bactocasitone medium (2% v/w) (Thermo Fisher Scientific, Madrid, Spain), supplemented with 10% (v/v) fetal bovine serum (FBS), 0.3% penicillin G sodium salt, and 0.5 mg/mL streptomycin sulfate (Sigma-Aldrich, Madrid, Spain). Different concentrations of the evaluated compounds, prepared in fresh Bactocasitone medium, were added to the wells (50 µL per well). The negative control consisted of trophozoites incubated with the medium alone. After adding 10 µL of alamarBlue® reagent, the plates were incubated at 37 °C for 48 h with slight agitation. The data were analyzed using nonlinear regression with GraphPad Prism 9 software to determine the IC50 and IC90 values, which were then used for further studies on PCD [10].

[4] = system: N. fowleri ATCC® 30808™ trophozoites; assay: In vitro amoebicidal activity against N. fowleri trophozoites (alamarBlue), strain ATCC 30808; format: cell-based, Naegleria fowleri; conditions: for IC50: Naegleria fowleri; for IC50 / N. fowleri ATCC 30808 IC50: mean ± SD; for N. fowleri ATCC 30808 SI (CC50/IC50): selectivity index vs murine macrophages J774; for N. fowleri ATCC 30808 IC50: trophozoites
Description: as §2, §3

[5] = system: N. fowleri ATCC® 30215™ cyst stage; assay: In vitro cysticidal activity against N. fowleri cysts (alamarBlue), strain ATCC 30215; format: cell-based; conditions: Naegleria fowleri, ATCC30215, mean ± SD
Description: (§4) Following the assays against trophozoites, the compounds were further evaluated for their activity against the cyst stage of N. fowleri (ATCC® 30808™ and ATCC® 30215™). To induce cyst formation, the trophozoites were centrifuged, resuspended in MYAS medium, and incubated under slight agitation at room temperature for 10 days. After this, mature cysts were harvested, pretreated with 0.5% SDS, and seeded in a 96-well microtiter plate at 2 × 10^5 cells/mL. The drugs were tested in serial dilutions, and after 24 h of incubation at 37 °C, the medium was replaced with fresh Bactocasitone medium. The colorimetric alamarBlue® assay was used to assess cyst viability, with 10 µL of reagent added to each well. The plates were incubated for an additional 72 h at 37 °C, and fluorescence was measured using the EnSpire® Multimode Plate Reader (PerkinElmer, Madrid, Spain). The results were compared to a negative control (untreated cysts) and a positive control (amphotericin B and miltefosine). The IC50 values were determined through nonlinear regression analysis.

[6] = system: N. fowleri ATCC® 30808™ cyst stage; assay: In vitro cysticidal activity against N. fowleri cysts (alamarBlue), strain ATCC 30808; format: cell-based, Naegleria fowleri; conditions: Naegleria fowleri, ATCC30808, mean ± SD
Description: as §4

[7] = In vitro cytotoxicity on murine macrophages (alamarBlue); format: cell-based; conditions: mouse, J774A.1 murine macrophage cell line (ATCC TIB-67), mean ± SD
Description: as §2
The cytotoxicity of the compounds was assessed against the murine macrophage cell line J774A.1 (ATCC® TIB-67™). Cells were maintained at 37 °C in a 5% CO2 atmosphere in DMEM medium. In the assay, different concentrations of the compounds were added to the cells in a 96-well microtiter plate, and after 24 h of incubation, 10 µL of alamarBlue® reagent was added. The fluorescence intensity was measured using the EnSpire® Multimode Plate Reader (PerkinElmer, Madrid, Spain). The cytotoxic concentration required to reduce cell viability by 50% (CC50) was determined through nonlinear regression analysis using GraphPad Prism 9 software. The results were compared with those obtained against trophozoites to calculate the selectivity index (S.I.) for N. fowleri.

[8] = ATCC30808, 48 h, trophozoite stage, 48 h
[9] = ATCC30808, trophozoites, extracts, fractions, subfractions, isolated compound and reference drugs

| Structure (SMILES) | chromatin condensation (Hoechst 33342 fluorescence) (N. fowleri trophozoites [1]) | plasma membrane integrity (SYTOX Green fluorescence) (N. fowleri trophozoites [2]) | IC50 [3] | N. fowleri ATCC 30215 SI (CC50/IC50) [3] | IC50 [4, 8] | IC50 [4, 9] | N. fowleri ATCC 30808 SI (CC50/IC50) ([4]; trophozoite stage) | N. fowleri ATCC 30808 IC50 ([4]; extracts, fractions, subfractions, isolated compound and reference drugs, listed as A) | IC50 [5] | IC50 [6] | CC50 at 24 h [7] | N. fowleri ATCC 30808 IC50 ([4]; extracts, fractions, subfractions, isolated compound and reference drugs, listed as UA (1)) |
| --- | --- | --- | --- | --- | --- | --- | --- | --- | --- | --- | --- | --- |
| C[C@@H]1[C@H](O)[C@@H](C)/C=C/C=C/C=C/C=C/C=C/C=C/C=C/[C@H](O[C@@H]2O[C@H](C)[C@@H](O)[C@H](N)[C@@H]2O)C[C@@H]2O[C@](O)(C[C@@H](O)C[C@@H](O)[C@H](O)CC[C@@H](O)C[C@@H](O)CC(=O)O[C@H]1C)C[C@H](O)[C@H]2C(=O)O [Amphotericin B, reference compound] | clear chromatin condensation | bright green fluorescence | 0.16 ± 0.01 µM | >1250 | 0.12 ± 0.03 µM | 0.18 µg/mL | >1650.89 | 0.162 ± 0.002 µg/mL | 0.62 ± 0.04 µM | 0.53 ± 0.03 µM | > 200 µM | – |
| C[C@H]1[C@H](C)CC[C@]2(C(=O)O)CC[C@]3(C)C(=CC[C@@H]4[C@@]5(C)CC[C@H](O)C(C)(C)[C@@H]5CC[C@]43C)[C@H]12 [Compound 1, ursolic acid] | – | – | 82.5 ± 8.43 µM | 0.43 | 142 ± 8.17 µM | 65.9 µg/mL | – | – | – | – | 35.9 ± 9.28 µM | 65.91 ± 3.73 µg/mL |
| COC(=O)[C@]12CC[C@@H](C)[C@H](C)[C@H]1C1=CC[C@@H]3[C@@]4(C)CC[C@H](O)C(C)(C)[C@@H]4CC[C@@]3(C)[C@]1(C)CC2 [Compound 2, methyl ursolate] | – | – | 84.5 ± 6.31 µM | – | 88.7 ± 3.02 µM | – | 1.12 | – | – | – | 49.6 ± 5.65 µM | – |
